Measured values: patent US20040028639A1, “Cholesterol sulfate compositions for enhancement of stratum corneum function” (priority 1999, published 2004)
Counter-ions that a name gives are not always drawn.

How the values were obtained:
[1] = test system: Matek skin equivalents; experiment: stratum corneum thickness and cohesion in skin equivalents (histology); assay type: cell-based
Experimental: FIG. 1 illustrates the condition of stratum corneum thickness under different cholesterol sulfate treatment regimens, as described in Example I: (A) control (no treatment); (B) 1% ethanol vehicle control; (C) cholesterol sulfate, 0.01 μg/ml; (D) cholesterol sulfate, 0.1 μg/ml; (E) cholesterol sulfate, 1 μg/ml; (F) cholesterol sulfate 10 μg/ml.
This example illustrates the ability of cholesterol sulfate to retard desquamation and maintain stratum corneum thickness.
Matek skin equivalents are obtained and prepared for use in accordance with the supplier's protocol. Equilibrated skins are treated topically with dilutions of cholesterol sulfate. Cholesterol sulfate is solubilized 1 mg/ml in ethanol, and serially diluted 10-fold to yield doses of 0.01, 0.1, 1 and 10 μg/ml. Each dose is added topically to an equivalent, using a 100 μl volume. Treatment is repeated daily along with media replacement over a three day period. One sample is treated with 1% ethanol, representing a vehicle control. Following treatment, equivalents are fixed according to standard protocol, and sent for histological preparations. FIGS. 1A-F show stained sections of the two controls plus the treatment samples. […] Some compaction is seen in the ethanol treated sample, which is believed due to dehydration of the sample combined with lipid removal.

[2] = test system: skin (back of hand), stratum corneum; experiment: skin flakiness by D-Squame Discs Method and Image Analysis; assay type: in vivo, human; conditions: 0.5% cholesterol sulfate in a water and oil emulsion base, right hand, twice a day
Experimental: A study is conducted to determine the effect of cholesterol sulfate on skin flakiness, as an indicator of its effect in reducing desquamation. Fifteen subjects between the ages of 21 and 65 years are selected for the study. The subjects report for the study without moisturizers or any other products on their hands and their baseline measurements are taken. The subjects are given a product containing 0.5% cholesterol sulfate in a water and oil emulsion base to take home and self-administer on their right hands only, twice a day in the morning after washing and in the evening at least 15 minutes before bedtime for four weeks. The left hand serves as the untreated control site. The subjects are only allowed to use the test product and specifically log its use in a daily diary. At the end of two and four weeks the subjects return for testing without applying the product for at least 12 hours and they are re-evaluated under the same conditions.
Evaluation of flakiness is determined via the D-Squame Discs Method and Image Analysis. Briefly, four D-Squame discs are firmly pressed on the back of each hand with hand held uniform pressure device and removed by gently pulling away from the skin. […] Desquamation is evaluated from the D-Squame discs via the image analyzer. […]
An OPTIMA image analyzer is used to evaluate skin flakiness. […] The average Gray Value corresponding to the sample density is measured. […]

CC(C)CCC[C@@H](C)[C@H]1CC[C@H]2[C@@H]3CC=C4C[C@@H](OS(=O)(=O)O)CC[C@]4(C)[C@H]3CC[C@]12C [cholesterol sulfate]
organization and cohesion of the stratum corneum (stained sections) ([1]; 0.01, 0.1, 1 and 10 μg/ml, 100 μl topically, daily over three days, vs media control, effect increases with amount): gradual increase in organization and cohesion of the stratum corneum
thickness of the layers of the stratum corneum ([1]; application to skin cells, FIGS. 1C-F (0.01-10 μg/ml)): distinct, dose-dependent, increase in the thickness
decrease in flakiness relative to baseline ([2]; after 4 weeks): 24.1%
decrease in flakiness relative to baseline ([2]; after two weeks): 22.5%
